Test results as given in PMC9965590, “Development of Computational In Silico Model for Nano Lipid Carrier Formulation of Curcumin” (Molecules, 2023).

Assays:
[1] = Actual solubility of curcumin in lipids (laboratory experiment); type: physicochemical
Excerpt: Table 2 Predicted versus actual results of curcumin solubility in different lipids. | column: Actual Solubility (mg/g)

[2] = In vitro drug release (dialysis bag, phosphate buffer pH 6.8, 37 °C); type: physicochemical
Description: The in vitro drug release research was conducted at 37 °C for 24 h in a phosphate buffer (pH 6.8).
The dialysis bag’s molecular weight threshold of 12–14 KDa was used to determine the in vitro drug release from the formulations [35, 82]. […] Regularly, new dissolution medium samples were taken from the dissolution medium and replaced. A volumetric flask filled with 10 Ml of methanol was treated with 1 mL of the filtrate after it was filtered through Whatman filter paper No. 1. As needed, additional dilutions were made. A spectrophotometric technique was used to analyze the materials. Calculations were made with the Korsmeyer and Peppas model and the PCP Disso Version 2.08 programmed [83, 84, 85, 86, 87, 88] to determine the time needed for 50 and 85% drug release, respectively.

[3] = In vitro gut permeation study; type: in vitro ADME; settings: after 8 h
Description: The experimental protocol was approved by the Institutional Animal Ethical Committee (IAEC) with approval number CPCSEA/IAEC/JLS/16/9/21/13. Experiments on a fasted Wistar rat’s (weighing 250–300 g) small intestine were conducted in a laboratory setting. An intestinal segment was removed from a dead rat after euthanasia using CO2 inhalation and it was cut into lengths of 6–7 cm. […] In a beaker heated to 37 °C, the sac was submerged in an oxygenated Krebs Ringer solution (20 mL). The sink was maintained by removing and replacing aliquots of 1 mL every 0.5, 1, 1.5, 2, and 8 h with an equivalent volume of warm Krebs Ringer solution heated to 37 °C. Each aliquot’s medication concentration was measured using HPLC (n = 3). The HPLC system is equipped through a Shimadzu LC-10AD VP pump, a C18 Agilent column (Inertsil, 150 mm × 4.66 mm, […]), and a flow rate of 1 mL/min; the mobile phase has been degassed. It is made up of an acetonitrile, water, and methanol (50:10:40) ratio. The detector wavelength was set at 425 nm. The injection volume was 10 µL. The samples were measured after diluting suitably with methanol. Each formulation’s flow and permeability coefficients were calculated.
Papp(cm/sec)=(DQ/dt)(AxCO)

SMILES: COc1cc(/C=C/C(=O)CC(=O)/C=C/c2ccc(O)c(OC)c2)ccc1O [curcumin, Curcumin]
- Actual Solubility ([1]; in liquid lipid Castor oil): 3.52 ± 0.52 mg/g
- Actual Solubility ([1]; in liquid lipid Corn oil): 1.06 ± 0.15 mg/g
- Actual Solubility ([1]; in liquid lipid Grape seeds oil): 0.59 ± 0.64 mg/g
- Actual Solubility ([1]; in liquid lipid Oleic acid): 4.61 ± 0.13 mg/g
- Actual Solubility ([1]; in liquid lipid Olive oil): 3.48 ± 0.34 mg/g
- Actual Solubility ([1]; in liquid lipid Soybean oil): 1.36 ± 0.26 mg/g
- Actual Solubility ([1]; in solid lipid Cetosteryl): 2.06 ± 0.13 mg/g
- Actual Solubility ([1]; in solid lipid GMS): 3.58 ± 0.03 mg/g
- Actual Solubility ([1]; in solid lipid Palmitic acid): 3.28 ± 0.06 mg/g
- Actual Solubility ([1]; in solid lipid Stearic acid): 2.62 ± 0.12 mg/g
- Actual Solubility ([1]; in solid lipid Tri Palmitin): 3.25 ± 0.30 mg/g
- time to dissolve 50% of the curcumin [2]: more than 24 h
- Papp at 8 h ([3]; Wistar, rat gut, mucosal to serosal): 4.88 ×10⁻⁶ cm/s
- permeability through the rat gut [3]: 6.83 ± 1.53 mcg/cm^2/h
- permeability and penetration release rate in the intestine and the gut ([3]; as printed in Conclusions): 6.83 ± 1.53 mg/cm^2/h
